Read-outs that look alike come from different tables or passages of the source.
Test system: 5-HT1A autoreceptor
Conditions: fluoxetine 10 mg/kg i.p. daily, Org 34850 15 mg/kg i.p. twice daily or vehicle, fall following i.p. injection of fluoxetine 10 mg/kg, prefrontal cortex
Description: In experimental animals this desensitization can be measured using microdialysis in the prefrontal cortex and a combination of local administration of an SSRI (fluoxetine) in the region of the probe to block local uptake and systemic injection which affects all uptake sites and leads to 5-HT1A autoreceptor activation.
Studies were performed on Hooded Lister rats housed in groups of three with food and water available ad libitum. Animals were kept in controlled environmental conditions: temperature (20° C.) and humidity (30-50%) on a 12 h light/dark cycle (lights on 07.00 a.m.). Each cage received the same treatment and animals from a single cage studied on the same day to avoid social isolation. Animals underwent two treatments; vehicle or GR antagonist (15 mg/kg Org 34850, intraperitoneally (i.p.)) given as twice daily injections at 07:00-07:30 and 19:00-19:30. All animals received a single daily injection of fluoxetine (10 mg/kg in sterile water i.p.) given in the morning. Treatment periods were 0 (control), 3, 7 or 14 days.
For microdialysis animals were anaesthetised with chloral hydrate (500 mg/kg i.p. plus supplementary doses as required). Surgery was undertaken to position a microdialysis probe in the right prefrontal cortex (stereotaxic coordinates: rostral +3.2 mm, lateral 0.5 mm, ventral −4.6 mm from bregma and dura surface). The probe was perfused with artificial cerebrospinal fluid (aCSF) for 3 h until stable basal level of 5-HT is achieved. Samples were collected every 20 minutes and analysed by HPLC with electrochemical detection. The experimental protocol comprised three phases: i) Basal extracellular levels of 5-HT were measured for 60 min.; ii) Fluoxetine (10 μM) was added to the aCSF to block local uptake in order to measure total release rate. Samples were collected for 80 min. and iii) Fluoxetine was injected i.p. (10 mg/kg) to block all uptake sites, including at the autoreceptor, and samples were collected for 120 min. The magnitude of the fall in measured 5-HT levels after this injection was used as a measure of autoreceptor sensitivity.

In the case of `CNCCC(Oc1ccc(C(F)(F)F)cc1)c1ccccc1` (stereo not drawn) [fluoxetine], the “Mean Fall in 5-HT levels” value (3 days pretreatment) is reported as 7.59 fmol, the “Mean Fall in 5-HT levels” value (7 days pretreatment) is reported as 7.37 fmol and the “Mean Fall in 5-HT levels” value (14 days pretreatment) is reported as 4.85 fmol.
